Data set [1] deals with MDA-MB435 (melanoma). The data set can be described thus: In vitro antiproliferative MTT assay, MDA-MB435. It counts as cell-based. The following applies: Homo sapiens, MDA-MB-435; Table 2; MTT. For orientation: Tetrazolium dyes change colour on reduction, which living cells bring about.
Data set [2] deals with NCI-H358M (pulmonary bronchio-alveolar carcinoma). The data set can be described thus: In vitro antiproliferative MTT assay, NCI-H358M. The class given is cell-based.
The next data set has as its system SF-295 (glioblastoma). Description: Hollow Fiber Assay (HFA), SF-295 fibers s.c. in mice. The following applies: 4 days; for Proliferation (OD595 nm) SF-295: mean ± S.E.M. The class given is in vivo, BALB/c nude mice. Here is the method:
Cell culture of SF-295 (glioblastoma) and HCT-116 (colon carcinoma) was performed in RPMI 1640 medium supplemented with 10% fetal bovine serum, 2 mM glutamine, at 37°C with 5% CO2.
Polyvinylidene fluoride (PVDF) HFs with a 1-mm internal diameter and a molecular weight cutoff point of 500 kDa were used (Spectrum Laboratories, Houston, TX). The fibers were cut into pieces 12–15 cm long, washed 2× with sterile distilled water and kept in sterile conditions.
Before use, under sterile conditions, the fibers were incubated in complete RPMI with 20% fetal bovine serum (FBS) overnight (packaging time). Cell viability was assessed by trypan blue exclusion assay. Then, a cell suspension of 7.0×10^6 cell/mL at 4°C was injected into the fiber, with the ends thereof immediately heat-sealed. The fibers were cut into 2 cm each, transferred to petri plates and incubated in complete RPMI medium for 24 h prior to implantation in mice. Each cell was injected into one fiber of a different color (HCT-116, yellow fibers; SF-295, blue fibers).
Each animal received 2 fibers at s.c. site. All incisions were sealed with a surgical stapler.
Tumor cell proliferation was quantified through the ability of living cells to reduce the yellow dye 3-(4,5-dimethyl-2-thiazolyl)-2,5-diphenyl-2H-tetrazolium bromide (MTT, Sigma Aldrich) to a purple formazan product. For this purpose, the fibers removed from animals were incubated with MTT 1 mg/mL in 6-well plates during 4 h at 37°C, 5% CO2 and 95% humidity. The MTT solution was aspirated; fibers were washed with saline solution containing protamine sulphate 2.5% and incubated in protamine solution overnight at 4°C. Fibers were transferred to 24 well plates, cut into 2 or 3 pieces and put to dry. The formazan was dissolved in […] of DMSO, aliquots (150 uL) were transferred to 96 well plates and absorbance was measured at 595 nm (DTX-880, Beckman Coulter).

Another data set concerns PC3M (prostate cancer). The data set can be described thus: In vitro antiproliferative MTT assay, PC3M. It counts as cell-based.
Data set [3] concerns MDA-MB435 (melanoma). Description: In vitro antiproliferative MTT assay, MDA-MB435. The class given is cell-based.
The next data set relates to tumor cell lines. Description: In vitro antiproliferative MTT assay, tumor cell lines (summary over the panel). The following applies: summary in text over the cell lines of Table 2; read-out: IC50 (antiproliferative potency over the tumor cell lines). It counts as cell-based. As to the method: The antiproliferative activity of compounds 5a–r was determined based on an MTT assay and using CA-4 as standard against the tumor cell lines: HL-60 (human leukemia), SF-295 (human glioblastoma), MDA-MB435 (melanoma), PC3M (prostate cancer), OVCAR-8 (ovaries adenocarcinoma), NCI-H258M (pulmonary bronchio-alveolar carcinoma) and HCT-8 (adenocarcinoma ileocecal) (Table 2). To determine the selectivity index of compounds 5a–r, their antiproliferative profile was also evaluated toward human lymphocytes (Table 2).
Compounds (0.009–5 µg/mL) were tested for cytotoxic activity against selected cancer cell lines: SF-295 (glioblastoma), HCT-8 (colon), MDAMB-435 (melanoma), HL60 (leukemia), PC3M (prostate cancer), OVCAR-8 (ovaries adenocarcinoma) and NCI-H258M (pulmonary bronchio-alveolar carcinoma). All cell lines were kindly obtained from the National Cancer Institute (Bethesda, MD, USA).Tumor cell proliferation was quantified through the ability of living cells to reduce the yellow dye 3-(4,5-dimethyl-2-thiazolyl)-2,5-diphenyl-2H-tetrazolium bromide (MTT, Sigma Aldrich)) to a purple formazan product and absorbance was measured at 595 nm (DTX-880, Beckman Coulter).

Data set [4] concerns SF-295 (human glioblastoma). Description: In vitro antiproliferative MTT assay, SF-295. It counts as cell-based.
The test system of data set [5] is HCT-8 (adenocarcinoma ileocecal). Description: In vitro antiproliferative MTT assay, HCT-8. The class given is cell-based.
The test system of the next data set is human lymphocytes. Description: In vitro antiproliferative assay, human lymphocytes. It counts as cell-based. The following applies: Lymphocyte, Table 2.
A further data set concerns tubulin. Description: Tubulin polymerization assay (CEREP). The following applies: single concentration C = 30 µM; vinblastine as positive control. The class given is biochemical. As to the method:
The tubulin polymerization assay was performed by CEREP® employing a single concentration of 5b (C = 30 µM), using vinblastine as positive control. In this assay, LASSBio-1586 (5b) inhibited 91% of the tubulin polymerization, validating the rational design employed in the molecular design of the derivatives 5a–r (data not shown; available in the supplementary information, Figure S1).
The tubulin polymerization assay was performed by CEREP®, as described by Bonne and co-workers.

Data set [6] in a line: Aqueous solubility assay by ultraviolet spectroscopy. The class given is physicochemical. The following applies: water (saturated aqueous solution), thermodynamic from solid, 2 hours at 37°C, read-out: Aq. Solubility.
[7] abbreviates: IC50 for human lymphocytes/IC50 for cancer cell line.
The mark [8] stands for this setting: SI of 5b relative to SI of CA-4.

Values after ≈ are worked out from the molar mass of the structure shown.

The results in this text go back to publication PMC3948622, “Docking, Synthesis and Antiproliferative Activity of N-Acylhydrazone Derivatives Designed as Combretastatin A4 Analogues” (PLoS ONE, 2014).

As a reminder, the IC50 is the midpoint of a concentration-inhibition curve. By solubility is commonly meant the concentration that dissolves in the medium under given conditions.

Turning to `COc1cc(C(=O)N/N=C/c2ccccc2)cc(OC)c1OC` [Compound 5b, (E)-N′benzylidene-3,4,5-trimetoxybenzohydrazide], the IC50 with MDA-MB435 (melanoma) [1] was 64 nM; in [2] (NCI-H358M, Table 2, MTT), 350 nM; in the data set with PC3M (prostate cancer) (Homo sapiens, PC-3M, Table 2, MTT), 800 nM; with tumor cell lines, 64 to 800 nM; in data set [4] (Homo sapiens, SF-295, Table 2, MTT, read-out: IC50 SF295) it was 260 nM; in data set [5] (Homo sapiens, HCT-8, Table 2, MTT) it was 450 nM. The compound also showed an IC50 with human lymphocytes of 1340 nM. In [2] (setting [7]), the “SI Lymphocyte/ NCI-H358M” value came to 4.05±0.25. Moreover, the “comparative selectivity index (CA-4 vs 5b) NCI-H258M” value in [2] (setting [8]) turned out to be 9.5. For the same compound, the “Inhibition (%) SF-295” value with SF-295 (glioblastoma) (25 mg/kg/day intraperitoneally) came out at 61.89%; in the data set with SF-295 (glioblastoma) (50 mg/kg/day intraperitoneally), 72.68%. Besides, the entries for the “Proliferation (OD595 nm) SF-295” value in the data set with SF-295 (glioblastoma) (25 mg/kg/day intraperitoneally) and with SF-295 (glioblastoma) (50 mg/kg/day intraperitoneally) were 0.57±0.05 OD595 nm and 0.41±0.06 OD595 nm, respectively. In the data set on PC3M (prostate cancer) (setting [7]), the “SI Lymphocyte/ PC3M” value came out at 1.60±0.10. The “SI Lymphocyte/ MDA-MB345” value in the data set with MDA-MB435 (melanoma) [3] (setting [7]) came out at 20.07±0.93. In the data set with MDA-MB435 (melanoma) [3] (setting [8]), the “comparative selectivity index (CA-4 vs 5b) MDA-MB435” value stood at 42. Also, the “SI Lymphocyte/ SF-295” value in data set [4] (setting [7]) was found to be 4.88±0.42. Also, the “comparative selectivity index (CA-4 vs 5b) SF-295” value in [4] (setting [8]) worked out at 13. In addition, in data set [5] (setting [7]), the “SI Lymphocyte/ HCT-8” value is recorded as 2.86±0.13. The “inhibition of tubulin polymerization” value in the data set with tubulin is given as 91%. For the same compound, the solubility at 2 h in data set [6] came to 39.5 µg/mL (≈ 126 µM).
